Laboratory results reported in patent publication US7105527B2, “N4-acylcytosine nucleosides for treatment of viral infections” (priority 2001, dated 2006).
Where two headings read alike, the source gives them in different places.

Assays:
HIV-1NL4-3 = test: Anti-HIV assay in MT-4 cells, consensus p24 assay; type: cell-based
Description: (§1) In a second antiviral testing system, the potency of the compounds was determined by measurement of viral RNA accumulation in HIV-1RF infected MT-2 cells (Bacheler L T, Paul M, Otto M J, Jadhav P K, Stone B A & Miller J A (1994) An assay for HIV RNIn infected cell lysates, and its use for rapid evaluation of antiviral efficacy. Antivir. Chem. Chemother. 5:111–121). The virus titer was established to determine the dilution producing 15 to 30 ng/RNA per well of HIV RNIn 3 days of infection. HIV-1 RNA was quantified using biotinylated capture and alkaline phosphatase-derivatized reporter oligonucleotides as described previously (Charvet A-S, Camplo M, Faury P, Graciet J C, Mourier N, Chermann J C & Kraus J L (1994) Inhibition of human immunodeficiency virus type 1 replication by phosphonoformate- and phosphonoacetate-2′,3′-dideoxy-3′-thiacytidine conjugates. J. Med. Chem. 37:2216–2223). In a third system, the effect of analogs on the replication of HIV-1NL4-3 was determined via the InterCompany Consortium consensus p24 assay as previously described (Jadhav P K & MacKay M F (1997) Cyclic urea amide: HIV-1 protease inhibitors with low nanomolar potency against both wild types and protease inhibitor resistant mutants of HIV. J. Med. Chem. 40:181–190). Recombinant viruses were recovered by transfecting the appropriate NL4-3 plasmid by lipofection. Virus stocks recovered 7 to 10 days post-transfection were titered on MT-4 cells to determine if the dilution produced 1,000 to 3,000 ng p24 in 4 days. This dilution was then used in drug susceptibility assays, where drug was added 24 h post infection of cells, and p24 quantified by ELISA 3 days later.

HIV-1LAl = test: Anti-HIV (in PBM cells) assay, reverse transcriptase readout; type: cell-based; conditions: Human immunodeficiency virus 1, PBMC
Description: Anti-HIV-1 activity of the compounds was determined in human peripheral blood mononuclear (PBM) cells as described previously (Schinazi […]., Cannon D., Mathis R., Lloyd R. M. Jr., […]., St. Clair M., Wilson J., Furman P. A., Painter G., Choi […]. Antimicrob. Agents Chemother. 1992, 36, 2423; Schinazi […]., Cannon D., Xie […]., Smith G., Hahn E. Antimicrob. Agents Chemother. 1990, 34, 1061). Stock solutions ([…]) of the compounds were prepared in sterile DMSO and then diluted to the desired concentration in growth medium. […] Virus obtained from the cell supernatant was quantified on day 6 after infection by a reverse transcriptase assay using (rA)n.(dT)12.18 as template-primer. […] AZT was included as positive control. The antiviral EC50 and EC90 were obtained from the concentration-response curve using the median effective method described previously (Chou […]. Enzyme Regul. 1984, 22, 27-55; Belen'kii M. S. & Schinazi R. F. Antiviral Res. 1994, 25, 1-11).

[1] = Cytotoxicity assay in Vero cells; type: cell-based; conditions: African green monkey
Description: (§2) The toxicity of the compounds was assessed in Vero, human PBM, CEM (human lymphoblastoid), MT-2, and HepG2 cells, as described previously (Schinazi […]., Cannon D. L., Xie […]., Smith […]. […] Cycloheximide was included as positive cytotoxic control, and untreated cells exposed to solvent were included as negative controls. The cytotoxicity IC50 was obtained from the concentration-response curve using the median effective method described previously (Chou […]. […] Belen'kii M. S. & Schinazi R. F.

[2] = Cytotoxicity assay in MT-2 cells; type: cell-based; conditions: human
Description: as §2

[3] = Cytotoxicity assay in PBM cells; type: cell-based, human; conditions: human, human PBM cells
Description: as §2

[4] = Cytotoxicity assay in HepG2 cells; type: cell-based; conditions: human
Description: as §2

[5] = Cytotoxicity assay in CEM cells; type: cell-based, human; conditions: human, CEM lymphoblastoid cells
Description: as §2

HIV-1RF = test: Anti-HIV (in MT-2 cells) assay, viral RNA accumulation; type: cell-based; conditions: Human immunodeficiency virus 1, MT2, EC90, MT-2 cells, read-out: Anti-HIV-1 activity in different cells (EC90, μM) MT-2
Description: as §1

[6] = Human immunodeficiency virus 1, MT4, Table 1, read-out: Anti-HIV-1 activity in different cells (EC90, μM) MT-4
[7] = Table 1, read-out: Anti-HIV-1 activity in different cells (EC90, μM) PBM
[8] = Table 1, read-out: Cytotoxicity in different cells (IC50, μM) Vero
[9] = Table 1, read-out: Cytotoxicity in different cells (IC50, μM) MT-2
[10] = Table 1, read-out: Cytotoxicity in different cells (IC50, μM) PBM
[11] = Table 1, read-out: Cytotoxicity in different cells (IC50, μM) HepG2
[12] = Table 1, read-out: Cytotoxicity in different cells (IC50, μM) CEM
[13] = Human immunodeficiency virus 1, MT4, Table 2, read-out: Anti-HIV-1 activity in different cells (EC90, μM) MT-4
[14] = Table 2, read-out: Anti-HIV-1 activity in different cells (EC90, μM) PBM
[15] = Table 2, read-out: Cytotoxicity in different cells (IC50, μM) Vero
[16] = Table 2, read-out: Cytotoxicity in different cells (IC50, μM) MT-2
[17] = Table 2, read-out: Cytotoxicity in different cells (IC50, μM) PBM
[18] = Table 2, read-out: Cytotoxicity in different cells (IC50, μM) HepG2
[19] = Table 2, read-out: Cytotoxicity in different cells (IC50, μM) CEM

SMILES	EC90 (HIV-1NL4-3; [6]) [µM]	EC90 (HIV-1LAl; [7]) [µM]	IC50 [1, 8] [µM]	IC50 [2, 9] [µM]	IC50 [3, 10] [µM]	IC50 [4, 11] [µM]	IC50 [5, 12] [µM]	EC90 (HIV-1RF; Table 1) [µM]	EC90 (HIV-1NL4-3; [13]) [µM]	EC90 (HIV-1LAl; [14]) [µM]	IC50 [1, 15] [µM]	IC50 [2, 16] [µM]	IC50 [3, 17] [µM]	IC50 [4, 18] [µM]	IC50 [5, 19] [µM]	EC90 (HIV-1RF; Table 2) [µM]
Cc1ccc(C(=O)Nc2nc(=O)n([C@H]3CC[C@@H](CO)O3)cc2F)cc1 [Compound 22, β-D-2′,3′-Dideoxy-5-fluoro-N^4-p-toluoylcytidine]	0.23	0.028	> 100	> 50	> 100	> 100	> 100	0.31								
CCc1ccc(C(=O)Nc2nc(=O)n([C@H]3CC[C@@H](CO)O3)cc2F)cc1 [Compound 25, β-D-2′,3′-Dideoxy-N^4-(4-ethylbenzoyl)-5-fluorocytidine]	0.22	0.03	> 100	50	> 100	> 100	89.8	0.12								
CCCc1ccc(C(=O)Nc2nc(=O)n([C@H]3CC[C@@H](CO)O3)cc2F)cc1 [Compound 26, β-D-2′,3′-Dideoxy-5-fluoro-N^4-(4-n-propylbenzoyl)cytidine]	0.22	0.017	> 100	> 50	> 100	> 100	> 100	0.1								
O=C(Nc1nc(=O)n([C@H]2C=C[C@@H](CO)O2)cc1F)c1ccc(F)cc1 [Compound 35, β-D-2′,3′-Didehydro-2′,3′-dideoxy-5-fluoro-N^4-(4-fluorobenzoyl)cytidine]									7.2	1.08	83.1	> 50	53.1	93.6	51.3	0.88
O=C(Nc1nc(=O)n([C@H]2C=C[C@@H](CO)O2)cc1F)c1ccc(Cl)cc1 [Compound 36, β-D-N^4-(4-Chlorobenzoyl)-2′,3′-didehydro-2′,3′-dideoxy-5-fluorocytidine]									1.9	0.48	72.2	> 50	11.9	> 100	16.8	0.23
O=C(Nc1nc(=O)n([C@H]2C=C[C@@H](CO)O2)cc1F)c1ccc(Br)cc1 [Compound 37, β-D-N^4-(4-Bromobenzoyl)-2,3′-didehydro-2′,3′-dideoxy-5-fluorocytidine]									5.2	1.4	40.5	> 50	53	> 100	24	0.14
O=C(Nc1nc(=O)n([C@H]2C=C[C@@H](CO)O2)cc1F)c1ccc(I)cc1 [Compound 38, β-D-2′,3′-Didehydro-2′,3′-dideoxy-5-fluoro-N^4-(4-iodobenzoyl)cytidine]									0.85	0.76	100	> 50	57	> 100	11.4	0.31
